Data set [1] addresses T1, human δ opioid receptor (Homo sapiens, UniProt P41143). The following applies: mean ± SEM; cited from earlier work.
For data set [2], the target named is T1, human δ opioid receptor. Description: biochemical.
The conditions of data set [3]: rat PK studies.
The target in the next data set is human κ opioid receptor (Homo sapiens, UniProt P41145). The following applies: mean ± SEM; cited from earlier work.

Entries after “also recorded” stand apart in the source; their conditions may differ.

T1 sequence (P41143 whole entry): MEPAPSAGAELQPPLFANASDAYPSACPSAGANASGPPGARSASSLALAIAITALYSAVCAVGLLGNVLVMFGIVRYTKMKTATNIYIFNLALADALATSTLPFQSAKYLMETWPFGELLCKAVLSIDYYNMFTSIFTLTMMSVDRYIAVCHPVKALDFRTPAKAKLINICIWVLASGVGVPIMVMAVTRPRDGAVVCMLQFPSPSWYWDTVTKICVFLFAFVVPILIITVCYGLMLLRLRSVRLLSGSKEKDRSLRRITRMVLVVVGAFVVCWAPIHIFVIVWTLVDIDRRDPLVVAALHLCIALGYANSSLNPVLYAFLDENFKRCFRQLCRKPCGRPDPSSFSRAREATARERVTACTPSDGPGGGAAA
Sequence of human κ opioid receptor (P41145 whole entry): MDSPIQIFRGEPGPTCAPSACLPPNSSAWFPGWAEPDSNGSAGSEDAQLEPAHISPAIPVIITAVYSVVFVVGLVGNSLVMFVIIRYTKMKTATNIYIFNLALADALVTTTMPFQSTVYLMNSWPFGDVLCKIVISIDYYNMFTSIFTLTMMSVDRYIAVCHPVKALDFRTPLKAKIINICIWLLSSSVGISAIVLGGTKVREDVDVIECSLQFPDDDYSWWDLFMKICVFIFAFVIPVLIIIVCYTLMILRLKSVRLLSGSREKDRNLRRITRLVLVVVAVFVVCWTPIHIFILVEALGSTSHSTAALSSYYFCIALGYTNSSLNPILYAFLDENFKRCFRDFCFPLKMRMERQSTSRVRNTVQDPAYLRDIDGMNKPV

With `CC1CCN(C[C@@H](NC(=O)[C@H]2Cc3ccc(O)cc3CN2)C(C)C)CC1` [4-MePDTic (43)], the “Ke δ, DPDPE” value at human δ opioid receptor [1] is given as above 3000 nM.
Regarding `CC(C)[C@@H](CC1CCCCC1)NC(=O)[C@H]1Cc2ccc(O)cc2CN1` [Compound 1], on human δ opioid receptor [1], the “Ke δ, DPDPE” value is 640 ± 170 nM.
On human δ opioid receptor [2], `CC(C)[C@@H](CC1CCCCC1)NC(=O)[C@@H]1Cc2ccc(O)cc2CN1` [Compound 3, (3S)-N-[(1R)-1-(Cyclohexylmethyl)-2-methylpropyl]-7-hy-droxy-1,2,3,4-tetrahydroisoquinoline-3-carboxamide] gave a Kb above 3 µM.
Still for that read-out and setting: in the case of `CC(C)[C@H](CC1CCCCC1)NC(=O)[C@H]1Cc2ccc(O)cc2CN1` [Compound 4, (3R)-N-[(1S)-1-(Cyclohexylmethyl)-2-methylpropyl]-7-hydroxy-1,2,3,4-tetrahydroisoquinoline-3-carboxamide] it was above 3 µM; in that of `CC(C)[C@H](CC1CCCCC1)NC(=O)[C@@H]1Cc2ccc(O)cc2CN1` [Compound 5, (3S)-N-[(1S)-1-(Cyclohexylmethyl)-2-methylpropyl]-7-hydroxy-1,2,3,4-tetrahydroisoquinoline-3-carboxamide], above 3 µM.
For `CC(C)[C@@H](CC1CCCCC1)NC(=O)[C@H]1Cc2ccc(C(N)=O)cc2CN1` [Compound 9, (3R)-N^3-[(1R)-1-(Cyclohexylmethyl)-2-methylpropyl]-1,2,3,4-tetrahydroisoquinoline-3,7-dicarboxamide], in data set [3], the brain penetration result is on record as “brain penetration”.
On the same count and under the same terms, in the case of `CC(C)[C@@H](CC1CCCC1)NC(=O)[C@H]1Cc2ccc(O)cc2CN1` [Compound 13, (3R)-N-[(1R)-1-(Cyclopentylmethyl)-2-methylpropyl]-7-hydroxy-1,2,3,4-tetrahydroisoquinoline-3-carboxamide] it was “brain penetration; also recorded: crossed the blood–brain barrier; also recorded: penetrate the brain”.
Turning to `CC(C)[C@@H](CN1CCCCC1)NC(=O)[C@H]1Cc2ccc(O)cc2CN1` [Compound 42, (3R)-7-hydroxy-N-[(1S)-2-methyl-1-(piperidin-1-ylmethyl)propyl]-1,2,3,4-tetrahydroisoquinoline-3-carboxamide], the “Ke δ, DPDPE” value on human δ opioid receptor [1] is recorded as above 3000 nM.
Take `CC(C)[C@@H](CN1CC[C@@](C)(c2cccc(O)c2)[C@@H](C)C1)NC(=O)[C@H]1Cc2ccc(O)cc2CN1` [JDTic, (3R)-1,2,3,4-tetrahydro-7-hydroxy-N-[(1S)-1-[[(3R,4R)-4-(3-hydroxy-phenyl)-3,4-dimethyl-1-piperidinyl]methyl]-2-methylpropyl]-3-iso-quinolinecarboxamide]: the “Ke κ, U69,593” value on human κ opioid receptor was 0.02 ± 0.01 nM.
